Measurements as given in patent US11661419B2, “Benzimidazole derivative compounds and uses thereof” (Pfizer Inc., priority 2019, dated 2023).

The compounds below were run on IL-2 in activated CD4+ human T-cells (assay: IL-2 inhibition in supernatants from activated CD4+ human T-cells (cisbio HTRF)). Conditions: T-cell; geometric mean of count n; CD3/CD28-expanded human CD4+ T cells stimulated with ImmunoCult, 20 to 24 hrs.
Type: cell-based
Description: IL-2-Inhibition Activity, IC50 (uM)
IL-2 inhibition activity in supernatants from activated CD4+ human T-cells was determined by measuring the effect of a test compound on the activity using the cisbio HTRF™ technology.
Human CD4+ T cells were activated with CD3/CD28 for 3 days and expanded for an additional 4-6 days (7 to 9 days total). On day 0, frozen CD4+ T cells were thawed, treated with CD3/CD28 Dynabeads, and incubated at 37° C./5% CO2. On day 3, the beads were removed, and the cells were diluted to 5×10^5 cells/cm^2, placed in G-Rex10 flask, and incubated at 37° C./5% CO2. On day 7 to day 9 the cells were removed from the G-Rex flasks, counted and diluted back to 1×10^6 cells/ml in standard tissue culture flask.
The expanded CD4+ T-cells were centrifuged at 300×g for 10 minutes and resuspended to 0.5 million cells per ml (30,000 cells/well). 60 μl of CD4+ T cells were added per well to a 384 well plate containing 0.1 μL of varying concentrations of test compound in DMSO. The plates were incubated for 15 min at 37° C./5% CO2. 20 μl of diluted ImmunoCult™ ([…] Technologies, 1:12.5 in T cell assay media) were added to all wells of the plate (1:50 final assay concentration). The plates were incubated for an additional 20 to 24 hrs at 37° C./5% CO2. The plates were centrifuged at 300×g for 10 minutes. 16 μL of supernatant was removed and combined with 4 μl of IL-2 HTRF Abs. (cisbio kit). Plates were incubated for 3 hours at RT and read with an EnVision plate reader at 665 nm and 615 nm wavelengths.

IC50	SMILES
22 nM	Cc1cc2[nH]c(-c3n[nH]c4c3C[C@@H]3C[C@]3(C)C4)nc2cc1N(C)C(=O)[C@H](C)C1CCOCC1 [Example 4, (R)—N-methyl-N-(6-methyl-2-((4aS,5aR)-5a-methyl-1,4,4a,5,5a,6-hexahydrocyclopropa[f]indazol-3-yl)-1H-benzo[d]imidazol-5-yl)-2-(tetrahydro-2H-pyran-4-yl)propanamide]
27 nM	Cc1cc2[nH]c(-c3n[nH]c4c3C[C@@H]3C[C@]3(C)C4)nc2cc1N(C)C(=O)C(C)C1CCOCC1 (stereo partly drawn) [Example 5, N-methyl-N-(6-methyl-2-((4aS,5aR)-5a-methyl-1,4,4a,5,5a,6-hexahydrocyclopropa[f]indazol-3-yl)-1H-benzo[d]imidazol-5-yl)-2-(tetrahydro-2H-pyran-4-yl)propanamide]
13 nM	C[C@@H](C(=O)N(C)c1ccc2[nH]c(-c3n[nH]c4c3C[C@@H]3C[C@]3(C)C4)nc2c1)C1CCOCC1 [Example 7, (R)—N-methyl-N-(2-((4aS,5aR)-5a-methyl-1,4,4a,5,5a,6-hexahydrocyclopropa[f]indazol-3-yl)-1H-benzo[d]imidazol-5-yl)-2-(tetrahydro-2H-pyran-4-yl)propanamide]
26 nM	CC(C(=O)N(C)c1ccc2[nH]c(-c3n[nH]c4c3C[C@@H]3C[C@]3(C)C4)nc2c1)C1CCOCC1 (stereo partly drawn) [Example 8, N-methyl-N-(2-((4aS,5aR)-5a-methyl-1,4,4a,5,5a,6-hexahydrocyclopropa[f]indazol-3-yl)-1H-benzo[d]imidazol-5-yl)-2-(tetrahydro-2H-pyran-4-yl)propanamide]
99 nM	C[C@H](C(=O)N(C)c1ccc2[nH]c(-c3n[nH]c4c3C[C@@H]3C[C@]3(C)C4)nc2c1)C1CCOCC1 [Example 9, (S)—N-methyl-N-(2-((4aS,5aR)-5a-methyl-1,4,4a,5,5a,6-hexahydrocyclopropa[f]indazol-3-yl)-1H-benzo[d]imidazol-5-yl)-2-(tetrahydro-2H-pyran-4-yl)propanamide]
34 nM	CN(C(=O)C(F)(F)C1CCOCC1)c1ccc2[nH]c(-c3n[nH]c4c3C[C@@H]3C[C@]3(C)C4)nc2c1 [Example 11, 2,2-difluoro-N-methyl-N-(2-((4aS,5aR)-5a-methyl-1,4,4a,5,5a,6-hexahydrocyclopropa[f]indazol-3-yl)-1H-benzo[d]imidazol-5-yl)-2-(tetrahydro-2H-pyran-4-yl)acetamide]
45 nM	C[C@@H](C(=O)N(C)c1cc2nc(-c3n[nH]c4c3C[C@@H]3C[C@]3(C)C4)[nH]c2cc1F)N1CCOCC1 [Example 17, (S)—N-(6-fluoro-2-((4aS,5aR)-5a-methyl-1,4,4a,5,5a,6-hexahydrocyclopropa[f]indazol-3-yl)-1H-benzo[d]imidazol-5-yl)-N-methyl-2-morpholinopropanamide]
91 nM	CCc1cc2[nH]c(-c3n[nH]c4c3C[C@@H]3C[C@]3(C)C4)nc2cc1N(C)C(=O)[C@H](C)N1CCOCC1 [Example 18, (S)—N-(6-ethyl-2-((4aS,5aR)-5a-methyl-1,4,4a,5,5a,6-hexahydrocyclopropa[f]indazol-3-yl)-1H-benzo[d]imidazol-5-yl)-N-methyl-2-morpholinopropanamide]
340 nM	C[C@@H](C(=O)N(C)c1cc(F)c2[nH]c(-c3n[nH]c4c3C[C@@H]3C[C@]3(C)C4)nc2c1)N1CCOCC1=O [Example 22, (S)—N-(7-fluoro-2-((4aS,5aR)-5a-methyl-1,4,4a,5,5a,6-hexahydrocyclopropa[f]indazol-3-yl)-1H-benzo[d]imidazol-5-yl)-N-methyl-2-(3-oxomorpholino)propanamide]
304 nM	C[C@H](C(=O)N(C)c1cc(F)c2[nH]c(-c3n[nH]c4c3C[C@@H]3C[C@]3(C)C4)nc2c1)N1CCOCC1=O [Example 23, (R)—N-(7-fluoro-2-((4aS,5aR)-5a-methyl-1,4,4a,5,5a,6-hexahydrocyclopropa[f]indazol-3-yl)-1H-benzo[d]imidazol-5-yl)-N-methyl-2-(3-oxomorpholino)propanamide]
289 nM	Cc1cc2[nH]c(-c3n[nH]c4c3C[C@@H]3C[C@]3(C)C4)nc2cc1N(C)C(=O)CN1CCOC(CO)C1 (stereo partly drawn) [Example 27, 2-(2-(Hydroxymethyl)morpholino)-N-methyl-N-(6-methyl-2-((4aS,5aR)-5a-methyl-1,4,4a,5,5a,6-hexahydrocyclopropa[f]indazol-3-yl)-1H-benzo[d]imidazol-5-yl)acetamide]
305 nM	Cc1cc2[nH]c(-c3n[nH]c4c3C[C@@H]3C[C@]3(C)C4)nc2cc1N(C)C(=O)CN1CCO[C@@H](CO)C1 [Example 28, 2-((R)-2-(Hydroxymethyl)morpholino)-N-methyl-N-(6-methyl-2-((4aS,5aR)-5a-methyl-1,4,4a,5,5a,6-hexahydrocyclopropa[f]indazol-3-yl)-1H-benzo[d]imidazol-5-yl)acetamide]
58 nM	Cc1cc2[nH]c(-c3n[nH]c4c3C[C@@H]3C[C@]3(C)C4)nc2cc1N(C)C(=O)CN1CCOC(C)(C)C1 [Example 29, 2-(2,2-Dimethylmorpholino)-N-methyl-N-(6-methyl-2-((4aS,5aR)-5a-methyl-1,4,4a,5,5a,6-hexahydrocyclopropa[f]indazol-3-yl)-1H-benzo[d]imidazol-5-yl)acetamide]
82 nM	Cc1cc2[nH]c(-c3n[nH]c4c3C[C@@H]3C[C@]3(C)C4)nc2cc1N(C)C(=O)CN1CCO[C@H](C)C1 [Example 30, N-Methyl-N-(6-methyl-2-((4aS,5aR)-5a-methyl-1,4,4a,5,5a,6-hexahydrocyclopropa[f]indazol-3-yl)-1H-benzo[d]imidazol-5-yl)-2-((R)-2-methylmorpholino)acetamide]
68 nM	Cc1cc2[nH]c(-c3n[nH]c4c3C[C@@H]3C[C@]3(C)C4)nc2cc1N(C)C(=O)CN1C[C@H](C)O[C@@H](C)C1 [Example 33, 2-((2S,6S)-2,6-Dimethylmorpholino)-N-methyl-N-(6-methyl-2-((4aS,5aR)-5a-methyl-1,4,4a,5,5a,6-hexahydrocyclopropa[f]indazol-3-yl)-1H-benzo[d]imidazol-5-yl)acetamide]
50 nM	Cc1cc2[nH]c(-c3n[nH]c4c3C[C@@H]3C[C@]3(C)C4)nc2cc1N(C)C(=O)CC1CCOCC1 [Example 35, N-Methyl-N-(6-methyl-2-((4aS,5aR)-5a-methyl-1,4,4a,5,5a,6-hexahydrocyclopropa[f]indazol-3-yl)-1H-benzo[d]imidazol-5-yl)-2-(tetrahydro-2H-pyran-4-yl)acetamide]
96 nM	Cc1cc2[nH]c(-c3n[nH]c4c3C[C@@H]3C[C@]3(C)C4)nc2cc1N(C)C(=O)CN1CCOCC1=O [Example 36, N-Methyl-N-(6-methyl-2-((4aS,5aR)-5a-methyl-1,4,4a,5,5a,6-hexahydrocyclopropa[f]indazol-3-yl)-1H-benzo[d]imidazol-5-yl)-2-(3-oxomorpholino)acetamide]
82 nM	C[C@@H](C(=O)N(C)c1cc(O)c2[nH]c(-c3n[nH]c4c3C[C@@H]3C[C@]3(C)C4)nc2c1)N1CCOCC1 [Example 39, (S)—N-(7-hydroxy-2-((4aS,5aR)-5a-methyl-1,4,4a,5,5a,6-hexahydrocyclopropa[f]indazol-3-yl)-1H-benzo[d]imidazol-5-yl)-N-methyl-2-morpholinopropanamide]
47 nM	Cc1c(N(C)C(=O)[C@H](C)N2CCOCC2)cc2nc(-c3n[nH]c4c3C[C@@H]3C[C@]3(C)C4)[nH]c2c1F [Example 46, (S)—N-(7-fluoro-6-methyl-2-((4aS,5aR)-5a-methyl-1,4,4a,5,5a,6-hexahydrocyclopropa[f]indazol-3-yl)-1H-benzo[d]imidazol-5-yl)-N-methyl-2-morpholinopropanamide]
10 nM	Cc1cc2[nH]c(-c3n[nH]c4c3C[C@@H]3C(F)(F)[C@]3(C)C4)nc2cc1N(C)C(=O)[C@H](C)N1CCOCC1 [Example 53, (S)—N-(2-((4aS,5aR)-5,5-difluoro-5a-methyl-1,4,4a,5,5a,6-hexahydrocyclopropa[f]indazol-3-yl)-5-methyl-1H-benzo[d]imidazol-6-yl)-N-methyl-2-morpholinopropanamide]
4570 nM	CN(C(=O)CC1CCOCC1)c1cc2nc(-c3n[nH]c4c3C[C@@H]3C[C@]3(C)C4)[nH]c2cc1C#N [Example 54, N-(6-cyano-2-((4aS,5aR)-5a-methyl-1,4,4a,5,5a,6-hexahydrocyclopropa[f]indazol-3-yl)-1H-benzo[d]imidazol-5-yl)-N-methyl-2-(tetrahydro-2H-pyran-4-yl)acetamide]

These compounds were tested against Tropomyosin receptor kinase A (TRKA, NTRK1) (Homo sapiens (Human), UniProt P04629) (assay: TRKA (NTRK1) enzyme Z'-LYTE assay). Conditions: arithmetic mean of count n; test compound 1 uM, ATP 1 mM.
Type: biochemical
Description: Tropomyosin Receptor Kinase a (TRKA) Activity, % Inhibition
TRKA, also known as neurotrophic tyrosine kinase receptor type 1 (NTKR1) activity was determined by measuring the effect of a test compound on the activity against the NTRK1 enzyme using the ThermoFisher Z'-LYTE Assay fluorescence-based coupled enzyme format (www.thermofisher.com/selectscreen). […] The resulting effect value for the tested compound was compared to the assay controls to determine the % inhibition (%).

Tropomyosin receptor kinase A (TRKA, NTRK1), sequence (P04629 33-796): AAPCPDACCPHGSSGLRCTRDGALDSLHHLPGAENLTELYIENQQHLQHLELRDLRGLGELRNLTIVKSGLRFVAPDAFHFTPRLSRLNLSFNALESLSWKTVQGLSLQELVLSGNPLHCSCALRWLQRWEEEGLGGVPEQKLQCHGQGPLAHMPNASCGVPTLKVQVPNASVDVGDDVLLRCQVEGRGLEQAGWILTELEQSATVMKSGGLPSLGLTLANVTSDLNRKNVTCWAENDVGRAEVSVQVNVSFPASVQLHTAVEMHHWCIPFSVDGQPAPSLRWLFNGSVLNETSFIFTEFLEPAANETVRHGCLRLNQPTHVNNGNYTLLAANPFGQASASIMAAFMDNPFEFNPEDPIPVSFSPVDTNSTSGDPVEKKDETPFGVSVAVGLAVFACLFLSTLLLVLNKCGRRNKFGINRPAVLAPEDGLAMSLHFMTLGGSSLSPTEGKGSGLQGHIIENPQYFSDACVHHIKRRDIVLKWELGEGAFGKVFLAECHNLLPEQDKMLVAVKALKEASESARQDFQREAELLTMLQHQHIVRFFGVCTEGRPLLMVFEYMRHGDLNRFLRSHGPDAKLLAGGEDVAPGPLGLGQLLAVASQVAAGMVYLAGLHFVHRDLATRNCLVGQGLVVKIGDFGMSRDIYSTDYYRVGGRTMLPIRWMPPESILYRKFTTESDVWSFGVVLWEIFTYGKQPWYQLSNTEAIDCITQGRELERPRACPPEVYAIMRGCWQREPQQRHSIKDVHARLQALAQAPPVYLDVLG

inhibition at 1 µM	SMILES
95%	Cc1cc2[nH]c(-c3n[nH]c4c3C[C@@H]3C[C@]3(C)C4)nc2cc1N(C)C(=O)[C@H](C)C1CCOCC1 [Example 4, (R)—N-methyl-N-(6-methyl-2-((4aS,5aR)-5a-methyl-1,4,4a,5,5a,6-hexahydrocyclopropa[f]indazol-3-yl)-1H-benzo[d]imidazol-5-yl)-2-(tetrahydro-2H-pyran-4-yl)propanamide]
